Reference: patent US20250270180A1, “MEK INHIBITORS AND THERAPEUTIC USES THEREOF” (Immuneering Corporation, priority 2020, published 2025)

Experiments:
[1] = Mouse liver microsome stability (t1/2, Clint); assay type: in vitro ADME; settings: liver microsomes, pH 7.4, 0.5 mg/ml microsomal protein
Description: (Eppendorf 5804R). […] The disappearance of the parent compound was determined.

[2] = Metabolite ID study, six species hepatocytes; assay type: in vitro ADME; settings: hepatocyte incubations, T=60 min
Description: (§1) Animal Studies: Compound 9 was tested using six species hepatocytes in a metabolite ID study (T=60 min).
(§2) Cryopreserved hepatocytes from a selected species were thawed and incubated in duplicate with 10 uM compound 9 in Krebs-Henseleit buffer. […] Viability of hepatocytes was >70% after thawing.
(§3) (Eppendorf 5804R). […] The disappearance of the parent compound was determined, and the formation of metabolites was evaluated. Metabolites present at >1% of total compound related material (based on peak area) were identified by interpretation of the LC-MS/MS data.
(§4) The spectra obtained from all samples were screened for the presence of m/z values that are absent in the blank incubations (incubations with hepatocytes without compound and with vehicle control, and incubations of compound in buffer without hepatocytes). T=60 min incubations were used as an initial screening. All possible metabolites observed were semi-quantified by MS response (peak area). MS2 spectra were interpreted to determine possible location of the metabolism reaction. The presence of metabolites identified was compared across the selected species.
Primary metabolite shown for each species in bold font. Several masses found were also present in incubations with compound in buffer and were considered not to be metabolites.

A549 pMEK:tMEK (CRAF) = assay: CRAF-bypass pMEK:tMEK, A549; assay type: cell-based
Description: Materials and Methods: A549 or A375 cells were seeded in 6-well plates at an appropriate seeding density on day 0. On day 2 or 3, after checking the health and confluency of cells, the media was aspirated and replaced with 1 mL media containing a predetermined concentration of compound and incubated for 2 hours. After 2 hours, the media was aspirated, and the cells washed 2 times with cold PBS. Cells were lysed on ice, with 50 uL 1×CST lysis buffer+1 mM PMSF for 5 minutes. After 5 minutes, cells were removed using a scraper and transferred to cold 1.5 mL tubes, and centrifuged for 10 min, 4° C., 14,000×g. Supernatant was gently removed and snap frozen in liquid nitrogen. Protein concentration of the lysate was determined using Bradford Reagent (analyzed using SpectraMax M2E) and diluted to 1 mg/mL or pERK or 1.5 mg/mL for pMEK analysis. Cell lysates were then analyzed for phosphor-ERK/total-ERK levels on a Jess system (ProteinSimple; Cat #JS3346) using the following antibodies: tERK1/2 (CST 4696; 1:50) and pERK1/2 (CST 4377; 1:50). […]
A549 or […] cells were treated in duplicate for two hours with compounds at varying concentrations. […] After storage, the lysate was quantified with the Bradford assay. Before the lysates were prepared to run on the Jess, the lysates were diluted to 1 mg/mL for pERK analysis and 1.5 mg/mL pMEK analysis using quantitative Western blotting. […]

[3] = Metabolite ID study, monkey hepatocytes; assay type: in vitro ADME; settings: 10 uM compound 9, T=60 min
Description: as §1, §2, §3
(§5) MS settings were optimized for the flow rate. Full scan spectra were acquired in combination with data dependent MS2.
as §4

[4] = tested on: A549 CRAF BP (MEK phosphorylation); assay: A549-CRAF BP 100 nM, 2 h (pMEK); assay type: cell-based; settings: Homo sapiens, A549, 2 h, phospho:total ratio normalized to DMSO control
Method in brief: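 Cells treated in duplicate for 2 h with compound, lysed and protein-normalised (1 mg/mL pERK, 1.5 mg/mL pMEK). Quantitative capillary Western; phospho/total protein ratio normalised to DMSO.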

[5] = Single dose PK profile (plasma and tumor) in Colon26 tumor bearing mice; assay type: in vivo; settings: female, mouse
Description: Female mice (either athymic BALC/c nude, or BALB/c mice) were inoculated with a single subcutaneous injection of 0.1 ml of mouse Colon-26 cell suspension (1×10^5 cells per animal) in the right flank region. Colon26 (C26) tumor bearing mice received a single dose (3-4 mice/treatment) of vehicle (10% DMSO/90% [20% SBE-B-CD in saline], pH 5) containing compounds at indicated dose by gavage (p.o.) or intravenous administration (i.v.) and at various time points (0.16, 0.5, 1, 2, 4, 8, 12, 16, 24-hour) post dose humanely euthanized. Blood was obtained through cardiac puncture into K+EDTA tubes, mixed by inversion and centrifuged to obtain the plasma. Tissues were excised, cleaned of surrounding tissues. All samples immediately snap frozen in liquid N2 prior to LC-MS/MS analysis (using Agilent Poroshell-120 EC-C18 (4.0 μm) 2.1×50 mm, and a Water+API-4000 Electrospray MS unit). The results of this study are illustrated in FIGS. 16, and 17. Tables 11 describes a single does PK profile (plasma) and Table 12 describes a single dose PK profile (tumor).

[6] = Metabolite ID study, dog hepatocytes; assay type: in vitro ADME; settings: 10 uM compound 9, T=60 min
Description: as §1, §2, §3, §5, §4

[7] = athymic BALB/c nude or BALB/c, iv, 25 mg/kg, plasma, 25 mpk i.v.
[8] = athymic BALB/c nude or BALB/c, po, 25 mg/kg, plasma, 25 mpk p.o.
[9] = athymic BALB/c nude or BALB/c, po, 100 mg/kg, plasma, 100 mpk p.o.
[10] = iv, 25 mg/kg, plasma, 25 mpk i.v.
[11] = iv, 25 mg/kg, tumor, 25 mpk i.v.
[12] = po, 25 mg/kg, plasma, 25 mpk p.o.
[13] = po, 25 mg/kg, tumor, 25 mpk p.o.
[14] = po, 100 mg/kg, plasma, 100 mpk p.o.
[15] = po, 100 mg/kg, tumor, 100 mpk p.o.

CNS(=O)(=O)Nc1cccc(Cc2c(CN(C)C)c3ccc(OC(=O)N(C)C)cc3oc2=O)c1F [Compound 9]
half-life at 1 uM [1]: 44 min | microsomal CLint at 1 uM [1]: 32 µL/min/mg | extent of metabolism in hepatocytes from different species [2]: not extensively metabolized | CRAF A549 pMEK:tMEK [100 nM; 2 hr] (A549 pMEK:tMEK (CRAF)): 0.47 | % of total compound related material based on peak area, Monkey [3]: 95% | activity at 0.1 µM [4]: 44.9% | Tmax [5, 7]: 30 min | half-life [5, 7]: 37.8 min | bioavailability [5, 8]: 75.6% | half-life [5, 8]: 79.2 min | bioavailability [5, 9]: 192% | half-life [5, 9]: 73.2 min | AUC(0-inf) [5, 10]: 5810 ng·h/mL | AUC(0-t) [5, 10]: 5810 ng·h/mL | Cmax [5, 10]: 6520 ng/mL | AUC(0-inf) [5, 11]: 8290 ng·h/mL | AUC(0-t) [5, 11]: 8280 ng·h/mL | Cmax [5, 11]: 7790 ng/mL | Tmax [5, 11]: 30 min | half-life [5, 11]: 208 min | AUC(0-inf) [5, 12]: 4400 ng·h/mL | AUC(0-t) [5, 12]: 4390 ng·h/mL | Cmax [5, 12]: 4640 ng/mL | Tmax [5, 12]: 30 min | AUC(0-inf) [5, 13]: 4900 ng·h/mL | AUC(0-t) [5, 13]: 4890 ng·h/mL | Cmax [5, 13]: 4580 ng/mL | Tmax [5, 13]: 30 min | bioavailability [5, 13]: 59.1% | half-life [5, 13]: 76.8 min | AUC(0-inf) [5, 14]: 44600 ng·h/mL | AUC(0-t) [5, 14]: 44500 ng·h/mL | Cmax [5, 14]: 30100 ng/mL | Tmax [5, 14]: 30 min | AUC(0-inf) [5, 15]: 51700 ng·h/mL | AUC(0-t) [5, 15]: 51700 ng·h/mL | Cmax [5, 15]: 30300 ng/mL | Tmax [5, 15]: 30 min | bioavailability [5, 15]: 156% | half-life [5, 15]: 118 min | % of total compound related material based on peak area, Dog [6]: 96%
